Publication PMC9194530, “Interaction of Colchicine-Site Ligands With the Blood Cell-Specific Isotype of β-Tubulin—Notable Affinity for Benzimidazoles” (Frontiers in Cell and Developmental Biology, 2022)
Like-named read-outs stand apart in the source and are kept apart here.

What was measured:
CeTb, colchicine site = CeTb, colchicine site (Gallus gallus, UniProt P09207); assay: Single-point MDL competitive binding inhibition screen, erythrocyte tubulin; design: species or system chicken (Gallus gallus); conditions: for Kd: from single-point data (50 µM drug) fitted with single-site isotherm, Eq. 4, read-out: CeTb Kd(app)
[1] = target: Erythrocyte tubulin (CeTb), colchicine site (Gallus gallus, UniProt P09207); assay: biochemical; type: binding, chicken (Gallus gallus)
[2] = target: T1, bovine brain microtubule protein (tubulin plus microtubule-associated proteins) (Bos taurus, UniProt Q6B856); assay: GTP-induced polymerization of bovine brain microtubule protein (turbidity at 350 nm); type: biochemical; conditions: albendazole 12-60 µM, 15 µM microtubule protein, 1 mM GTP, 37 °C, 2% DMSO
T1 construct: from tissue; host or cells: bovine brain; microtubule protein purified by the method of Williams and Lee, 1982
Experimental: albendazole (ABZ). 15 µM bovine brain microtubule protein (tubulin plus microtubule-associated proteins, purified according to (Williams and Lee, 1982), in PME buffer was incubated with varying concentrations of albendazole for 40 min at room temperature.
The samples were equilibrated to 37 °C in the cell holder of a UV-Vis spectrophotometer (HP8453, Hewlett Packard, Palo Alto, CA). A baseline was recorded before adding GTP to a concentration of 1 mM to induce microtubule assembly. All samples had 2% (v/v) DMSO. The extent of polymerization was determined by the increase of turbidity as measured by the apparent absorbance at 350 nm.

[3] = target: T2, Brain tubulin (BTb), colchicine site (Bos taurus, UniProt Q6B856); assay: Competition titration with MDL (fluorescence), brain tubulin; type: binding, bovine or rat
T2 construct: from tissue; host or cells: mammalian brain: either rat brain (purified in house) or bovine brain (bought from Cytoskeleton #HTS02-A or Sigma-Aldrich #T4925)

BTb, colchicine site = target: T3, BTb, colchicine site (Bos taurus, UniProt Q6B856); assay: Single-point MDL competitive binding inhibition screen, brain tubulin; design: species or system bovine or rat; conditions: for inhibition at 50 µM: read-out: BTb % (inhibition of MDL binding)
T3 construct: from tissue; host or cells: mammalian brain: either rat brain (purified in house) or bovine brain (bought from Cytoskeleton #HTS02-A or Sigma-Aldrich #T4925)

BBTb = target: BBTb; design: method as in Lin et al., 1989; conditions: read-out: Kd combretastatin A4, literature value; ref Lin et al., 1989; cited from earlier work
[4] = target: Chicken erythrocyte tubulin (CeTb) (Gallus gallus, UniProt P09207); assay: MDL fluorescence dilution titration, chicken erythrocyte tubulin; type: binding
[5] = target: Chicken brain tubulin (CBTb); assay: MDL fluorescence dilution titration, chicken brain tubulin; type: binding; conditions: 1 µM tubulin, PM buffer, 5% DMSO, 25°C; ± standard error of fit
[6] = target: Erythrocyte tubulin (CeTb) (Gallus gallus, UniProt P09207); assay: Inhibition of taxol-induced tubulin polymerization (absorbance at 350 nm), erythrocyte tubulin; type: biochemical, chicken (Gallus gallus)
Experimental: (§1) Tubulin was polymerized at a concentration of 2 µM in PM buffer (0.1 M Pipes pH 7, 1 mM MgCl2) + 0.1 mM GTP in a volume of 60 µL. The reaction mixture was transferred to a 10-mm pathlength microcuvette (Hellma United States Inc., Plainview, NY) and placed in the cuvette holder of a SpectraMax M2 Multimode Microplate Reader (Molecular Devices, San Jose, CA) equipped with temperature control set at 37°C for these experiments. Drugs at 20 µM were added directly to the polymerization mixture and incubated for 15 min previous to starting the recordings. Tubulin polymerization kinetics was followed by recording the absorbance at 350 nm. After recording the baseline, tubulin polymerization was induced by the addition of 2 µM paclitaxel (taxol). The final concentration of DMSO in the mixtures was 4%–5% v/v.
(§2) FIGURE 2 Inhibition of tubulin polymerization by colchicine-site drugs. Tubulin from brain (A) or from erythrocytes (B) was incubated at 2 µM in polymerization buffer at 37°C, and the absorbance at 350 nm was registered for 10 min prior to starting the polymerization by the addition of taxol 2 µM (arrow). Drugs were included in polymerization buffer and used at a concentration of 20 µM.

Brain tubulin (BTb) = target: T4, Brain tubulin (BTb) (Bos taurus, UniProt Q6B856); assay: Inhibition of taxol-induced tubulin polymerization (absorbance at 350 nm), brain tubulin; type: biochemical, bovine or rat; conditions: tubulin 2 µM, taxol 2 µM, drugs 20 µM; polymerization with taxol alone = 100%
T4 construct: from tissue; host or cells: mammalian brain: either rat brain (purified in house) or bovine brain (bought from Cytoskeleton #HTS02-A or Sigma-Aldrich #T4925)
Experimental: as §1, §2

Rat brain tubulin (RBTb) = target: T5, Rat brain tubulin (RBTb) (Rattus norvegicus, UniProt Q3KRE8); assay: MDL fluorescence dilution titration, rat brain tubulin; type: binding; conditions: 1 µM tubulin, PM buffer, 5% DMSO, 25°C; ± standard error of fit
T5 construct: Rat brain tubulin was purified from microtubule protein previously extracted from frozen rat brains; from tissue; host or cells: frozen rat brains; tubulin purified in house from microtubule protein

[7] = target: T6, Bovine brain tubulin (BBTb) (Bos taurus, UniProt Q6B856); assay: MDL fluorescence dilution titration, bovine brain tubulin; type: binding; conditions: 1 µM tubulin, PM buffer, 5% DMSO, 25°C; ± standard error of fit
T6 construct: purchased Cytoskeleton, Inc. or Sigma-Aldrich #HTS02-A or #T4925; host or cells: bovine brain

BTb = target: BTb; design: method as in Head et al., 1985; conditions: read-out: Kd nocodazole, published value; ref Head et al., 1985; cited from earlier work
rat brain tubulin = target: rat brain tubulin; design: method as in Cortese et al., 1977; conditions: tritiated podophyllotoxin, ref Cortese et al., 1977, read-out: Kd podophyllotoxin, literature value; cited from earlier work
[8] = 50 µM drug, 1 µM tubulin, 5 µM MDL, single point
[9] = competition titration, 1 µM tubulin, 5 µM MDL
[10] = competition titration, 1 µM tubulin, 5 µM MDL, calculated with Equation 4, read-out: Erythrocyte tubulin (CeTb) Kd
[11] = summary of competition titrations with MDL, read-out: Erythrocyte tubulin (CeTb) Kd (Table 4, selected drugs)
[12] = tubulin 2 µM, taxol 2 µM, drugs 20 µM, polymerization with taxol alone = 100%

In the case of `CCCSc1ccc2nc(NC(=O)OC)[nH]c2c1` [Albendazole], the “CeTb % (inhibition of MDL binding)” value (CeTb, colchicine site; [8]) is reported as 35%, the Kd (CeTb, colchicine site) is reported as 31000 nM and the IC50 [1, 9] is reported as 104000 ± 12000 nM. For the same molecule, the Kd [1, 10] was 35000 ± 4000 nM, the Kd [1, 11] was 35000 nM and the “inhibition of polymerization of BTb” value [2] was “little or no inhibition”. The “inhibition of polymerization of BTb” value ([2]; listed as albendazole (ABZ)) was “not significantly inhibited”, the “Brain tubulin (BTb) Kd” value ([3]; competition titration, 1 µM tubulin, 5 µM MDL, calculated with Equation 4, nb = no binding detected) was “nb” and the “Brain tubulin (BTb) Kd” value ([3]; competition titration, 1 µM tubulin, 5 µM MDL, calculated with Equation 4, nb = no binding detected, listed as albendazole) was “no detectable binding”. For the same molecule, the “Brain tubulin (BTb) IC50” value ([3]; competition titration, 1 µM tubulin, 5 µM MDL, nb = no binding detected) was “nb” and the “BTb % (inhibition of MDL binding)” value (BTb, colchicine site) was <1%.
In the case of `COc1ccc(/C=C\c2cc(OC)c(OC)c(OC)c2)cc1O` [Combretastatin A4, cis-Combretastatin A4], the “CeTb % (inhibition of MDL binding)” value (CeTb, colchicine site) is given as 64%, the Kd (BBTb) is given as 120 nM and the inhibition at 50 µM (BTb, colchicine site) is given as 92%.
In the case of `COc1ccc(OC)c(C(=O)/C(C)=C/c2ccc(N(C)C)cc2)c1` [MDL, (E)-1-(2,5-dimethoxyphenyl)-3-[4-(dimethylamino)phenyl]-2-methylprop-2-en-1-one], the Kd ([4]; 1 µM tubulin, PM buffer, 5% DMSO, 25°C, ± standard error of fit, read-out: Kd,MDL, chicken erythrocytes (CeTb)) is reported as 2600 ± 240 nM, the “MDL affinity for CeTb, fold weaker than to brain tubulins” value ([4]; direct MDL titration) is reported as ~5 fold and the “Ratio: Kd of MDL and CeTb divided by Kd of MDL and BBTb” value ([4]; direct MDL titration) is reported as 5. The Kd [5] was 510 ± 79 nM, the “Erythrocyte tubulin (CeTb) % inhibition at 30 min” value [6, 12] was 38% and the “Brain tubulin (BTb) % inhibition at 60 min” value (Brain tubulin (BTb)) was 64%. For the same molecule, the Kd (Rat brain tubulin (RBTb)) was 450 ± 46 nM and the Kd [7] was 540 ± 82 nM.
For `COC(=O)Nc1nc2ccc(C(=O)c3ccccc3)cc2[nH]1` [Mebendazole], the “CeTb % (inhibition of MDL binding)” value (CeTb, colchicine site; [8]) was 90%, the Kd (CeTb, colchicine site) was 1800 nM and the IC50 [1, 9] was 6800 ± 730 nM. For the same molecule, the Kd [1, 10] was 2300 ± 250 nM, the “Ratio: Kd of the drug and CeTb divided by the Kd of the drug and BBTb” value ([1]; ratio >1 = weaker binding to CeTb) was 1.9 and the Kd [1, 11] was 2600 nM. For the same molecule, the Kd ([3]; competition titration, 1 µM tubulin, 5 µM MDL, calculated with Equation 4, nb = no binding detected, read-out: Brain tubulin (BTb) Kd) was 1300 ± 230 nM, the IC50 ([3]; competition titration, 1 µM tubulin, 5 µM MDL, nb = no binding detected, read-out: Brain tubulin (BTb) IC50) was 14000 ± 2500 nM and the “Erythrocyte tubulin (CeTb) % inhibition at 30 min” value [6, 12] was 25%. The “Brain tubulin (BTb) % inhibition at 60 min” value (Brain tubulin (BTb)) was 92%, the inhibition at 50 µM (BTb, colchicine site; [8]) was 82% and the Kd (BTb, colchicine site; from single-point data (50 µM drug) fitted with single-site isotherm, Eq. 4, read-out: BTb Kd(app)) was 1000 nM.
In the case of `COC(=O)Nc1nc2ccc(C(=O)c3cccs3)cc2[nH]1` [Nocodazole], the “CeTb % (inhibition of MDL binding)” value (CeTb, colchicine site) is given as 96%, the Kd (BTb) is given as 2500 nM and the “Erythrocyte tubulin (CeTb) % inhibition at 30 min” value [6] is given as 90%. The “Brain tubulin (BTb) % inhibition at 60 min” value (Brain tubulin (BTb)) was 55% and the inhibition at 50 µM (BTb, colchicine site) was 85%.
For `COc1cc([C@@H]2c3cc4c(cc3[C@H](O)[C@H]3COC(=O)[C@H]23)OCO4)cc(OC)c1OC` [Podophyllotoxin], the inhibition at 50 µM (CeTb, colchicine site; 50 µM drug, 1 µM tubulin, 5 µM MDL, single point, read-out: CeTb % (inhibition of MDL binding)) was 81%, the “Ratio: Kd of the drug and CeTb divided by the Kd of the drug and BBTb” value [1] was 13 and the IC50 [1, 9] was 15000 ± 530 nM. The Kd [1, 10] was 4900 ± 180 nM, the Kd [1, 11] was 4900 nM and the IC50 [3] was 4000 ± 1000 nM. The Kd ([3]; Brain tubulin (BTb) Kd) was 370 ± 35 nM, the Kd ([3]; Brain tubulin (BTb) Kd (Table 4, selected drugs)) was 370 nM and the “Erythrocyte tubulin (CeTb) % inhibition at 30 min” value [6, 12] was 95%. For the same molecule, the “Brain tubulin (BTb) % inhibition at 60 min” value (Brain tubulin (BTb)) was 90%, the Kd (BTb, colchicine site) was 730 nM and the inhibition at 50 µM (BTb, colchicine site) was 90%. The Kd (rat brain tubulin) was 550 nM.
